Target: factor B (Homo sapiens, UniProt P00751)
Assay: factor B inhibition assay of Biological Example 1
Format: biochemical
Parameters: CVF-Bb complex prepared from purified cobra venom factor (1 μM), recombinant human complement factor B; made in house; host or cells: drosophila cells (factor B); E. coli (factor D used to form the complex)
Conditions: IC50 (nM), assay of Biological Example 1 (Table 1)

Sequence of factor B (P00751 260-764 limits assumed): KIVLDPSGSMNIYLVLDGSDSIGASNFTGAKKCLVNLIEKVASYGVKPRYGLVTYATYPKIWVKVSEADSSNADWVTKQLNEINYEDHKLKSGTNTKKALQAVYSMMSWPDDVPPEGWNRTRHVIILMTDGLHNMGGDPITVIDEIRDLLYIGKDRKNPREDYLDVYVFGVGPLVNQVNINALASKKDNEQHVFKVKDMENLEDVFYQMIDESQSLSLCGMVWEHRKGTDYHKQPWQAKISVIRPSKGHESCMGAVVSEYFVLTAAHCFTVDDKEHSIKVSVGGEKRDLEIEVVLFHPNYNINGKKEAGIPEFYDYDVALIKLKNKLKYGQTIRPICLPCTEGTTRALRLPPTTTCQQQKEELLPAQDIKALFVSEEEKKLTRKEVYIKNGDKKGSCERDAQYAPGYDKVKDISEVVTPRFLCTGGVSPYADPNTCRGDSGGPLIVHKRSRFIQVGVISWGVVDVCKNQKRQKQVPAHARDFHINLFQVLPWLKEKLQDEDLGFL
Sequence of factor B (Q91132 23-649 partner limits assumed): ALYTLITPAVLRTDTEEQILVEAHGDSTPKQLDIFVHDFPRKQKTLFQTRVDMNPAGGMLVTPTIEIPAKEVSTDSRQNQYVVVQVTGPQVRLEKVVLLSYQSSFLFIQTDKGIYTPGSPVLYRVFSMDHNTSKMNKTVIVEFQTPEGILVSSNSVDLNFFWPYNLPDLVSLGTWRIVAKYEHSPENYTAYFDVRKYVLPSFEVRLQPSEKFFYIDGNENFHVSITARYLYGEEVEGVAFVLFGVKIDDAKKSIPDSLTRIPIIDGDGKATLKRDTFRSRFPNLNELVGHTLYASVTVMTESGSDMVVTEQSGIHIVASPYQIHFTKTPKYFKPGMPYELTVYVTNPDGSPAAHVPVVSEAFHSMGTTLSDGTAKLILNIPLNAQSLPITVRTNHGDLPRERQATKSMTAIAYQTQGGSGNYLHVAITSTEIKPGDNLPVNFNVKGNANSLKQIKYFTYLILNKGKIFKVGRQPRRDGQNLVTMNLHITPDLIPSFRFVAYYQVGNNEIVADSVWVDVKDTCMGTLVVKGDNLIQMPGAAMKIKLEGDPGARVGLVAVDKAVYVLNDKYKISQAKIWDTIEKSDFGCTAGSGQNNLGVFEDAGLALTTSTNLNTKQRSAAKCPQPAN
Sequence of factor B (Q91132 733-984 partner limits assumed): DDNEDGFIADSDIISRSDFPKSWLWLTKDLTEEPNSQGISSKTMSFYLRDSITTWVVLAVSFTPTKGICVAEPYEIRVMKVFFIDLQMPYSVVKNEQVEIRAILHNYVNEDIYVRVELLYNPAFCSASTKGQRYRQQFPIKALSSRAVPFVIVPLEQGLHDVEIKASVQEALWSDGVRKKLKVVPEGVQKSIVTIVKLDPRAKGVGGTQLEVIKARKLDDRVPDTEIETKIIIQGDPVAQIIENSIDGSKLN
Sequence of factor B (Q91132 1264-1642 partner limits assumed): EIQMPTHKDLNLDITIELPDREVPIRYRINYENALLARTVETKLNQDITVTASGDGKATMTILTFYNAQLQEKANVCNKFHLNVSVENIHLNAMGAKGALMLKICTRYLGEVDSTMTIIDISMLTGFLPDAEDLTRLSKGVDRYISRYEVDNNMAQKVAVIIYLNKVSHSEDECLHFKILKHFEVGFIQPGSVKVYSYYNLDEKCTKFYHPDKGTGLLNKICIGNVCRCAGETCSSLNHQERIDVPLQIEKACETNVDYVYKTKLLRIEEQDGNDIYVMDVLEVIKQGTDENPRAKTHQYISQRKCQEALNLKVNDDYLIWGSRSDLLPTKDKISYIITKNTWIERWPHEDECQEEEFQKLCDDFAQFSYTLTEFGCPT

Row | Structure (SMILES) | IC50 [nM]
1 | Cc1cc(OC(F)F)c(C(NCCN)c2nc3cc(C#N)ccc3[nH]2)c2cc[nH]c12 (racemic) [3-B a) 2nd compound, (±)-2-(((2-aminoethyl)amino)(5-(difluoromethoxy)-7-methyl-1H-indol-4-yl)methyl)-1H-benzo[d]imidazole-5-carbonitrile] | 2700
2 | Cc1cc(OC(F)F)c(C(C)(O)c2nc3cc(C#N)ccc3[nH]2)c2cc[nH]c12 (racemic) [6-B b) (+), (+)-2-(1-(5-(difluoromethoxy)-7-methyl-1H-indol-4-yl)-1-hydroxyethyl)-1H-benzo[d]imidazole-5-carbonitrile] | 140
3 | Cc1cc(OC(F)F)c(C(C)(O)c2nc3cc(C#N)ccc3[nH]2)c2cc[nH]c12 (racemic) [6-B b) (−), (−)-2-(1-(5-(difluoromethoxy)-7-methyl-1H-indol-4-yl)-1-hydroxyethyl)-1H-benzo[d]imidazole-5-carbonitrile] | 110
4 | COc1cc(C)c2[nH]ccc2c1C(C)(O)c1nc2cc(C#N)ccc2[nH]1 (racemic) [26-C b) (+), (+)-2-(1-hydroxy-1-(5-methoxy-7-methyl-1H-indol-4-yl)ethyl)-1H-benzo[d]imidazole-5-carbonitrile] | 50
5 | COc1cc(C)c2[nH]ccc2c1C(C)(O)c1nc2cc(C#N)ccc2[nH]1 (racemic) [26-C b) (−), (−)-2-(1-hydroxy-1-(5-methoxy-7-methyl-1H-indol-4-yl)ethyl)-1H-benzo[d]imidazole-5-carbonitrile] | 80
6 | COc1cc(C)c2[nH]ccc2c1C(OC)c1nc2cc(C#N)ccc2[nH]1 (racemic) [30-B b) (+), (+)-2-(methoxy(5-methoxy-7-methyl-1H-indol-4-yl)methyl)-1H-benzo[d]imidazole-5-carbonitrile] | 220
7 | COc1cc(C)c2[nH]ccc2c1C(OC)c1nc2cc(C#N)ccc2[nH]1 (racemic) [30-B b) (−), (−)-2-(methoxy(5-methoxy-7-methyl-1H-indol-4-yl)methyl)-1H-benzo[d]imidazole-5-carbonitrile] | 160
8 | COC(=O)COC(c1nc2cc(C#N)ccc2[nH]1)(c1c(OC)cc(C)c2[nH]ccc12)C(F)(F)F (racemic) [35-B a), (±)-Methyl 2-(1-(5-cyano-1H-benzo[d]imidazol-2-yl)-2,2,2-trifluoro-1-(5-methoxy-7-methyl-1H-indol-4-yl)ethoxy)acetate] | 70
9 | COc1cc(C)c2[nH]ccc2c1C(N)(c1nc2cc(C#N)ccc2[nH]1)C(F)(F)F (racemic) [36-E b) (+), (+)-2-(1-amino-2,2,2-trifluoro-1-(5-methoxy-7-methyl-1H-indol-4-yl)ethyl)-1H-benzo[d]imidazole-5-carbonitrile] | 50
10 | CCCc1cc(C)c2[nH]ccc2c1C(C)(O)c1nc2cc(C#N)ccc2[nH]1 (racemic) [79-B a) 2nd compound, (±)-2-(1-hydroxy-1-(7-methyl-5-propyl-1H-indol-4-yl)ethyl)-1H-benzo[d]imidazole-5-carbonitrile] | 150
11 | Cc1cc(C)c2[nH]ccc2c1C(C)(N)c1nc2cc(C#N)ccc2[nH]1 (racemic) [101-E b) (+), (+)-2-(1-amino-1-(5,7-dimethyl-1H-indol-4-yl)ethyl)benzo[d]imidazole-5-carbonitrile] | 80
12 | Cc1cc(C)c2[nH]ccc2c1C(C)(N)c1nc2cc(C#N)ccc2[nH]1 (racemic) [101-E b) (−), (−)-2-(1-amino-1-(5,7-dimethyl-1H-indol-4-yl)ethyl)benzo[d]imidazole-5-carbonitrile] | 50
13 | COc1cc(C)c2[nH]ccc2c1C(C)(O)c1nc2cc(C#N)ccc2o1 (racemic) [126-C a), (±)-2-(1-hydroxy-1-(5-methoxy-7-methyl-1H-indol-4-yl)ethyl)benzo[d]oxazole-5-carbonitrile] | 8
14 | COc1cc(C)c2[nH]ccc2c1C(C)(OC)c1nc2cc(C#N)ccc2o1 (racemic) [127-B a), (±)-2-(1-methoxy-1-(5-methoxy-7-methyl-1H-indol-4-yl)ethyl)benzo[d]oxazole-5-carbonitrile] | 330
15 | CNC(c1nc2cc(C#N)ccc2[nH]1)c1c(OC(F)F)cc(C)c2[nH]ccc12 (racemic) [Example 4, (±)-2-((5-(Difluoromethoxy)-7-methyl-1H-indol-4-yl)(methylamino)methyl)-1H-benzo[d]imidazole-5-carbonitrile] | 570
16 | Cc1cc(S(C)(=O)=O)c(C(O)c2nc3cc(C#N)ccc3[nH]2)c2cc[nH]c12 (racemic) [Example 10-C, (±)-2-(Hydroxy(7-methyl-5-(methylsulfonyl)-1H-indol-4-yl)methyl)-1H-benzo[d]imidazole-5-carbonitrile] | 1360
17 | COCC(C)Oc1cc(C)c2[nH]ccc2c1Cc1nc2cc(C#N)ccc2[nH]1 (racemic) [Example 23, (±)-2-((5-((1-Methoxypropan-2-yl)oxy)-7-methyl-1H-indol-4-yl)methyl)-1H-benzo[d]imidazole-5-carbonitrile] | 2650
18 | Cc1cc(OCC(N)=O)c(C(C)(O)c2nc3cc(C#N)ccc3[nH]2)c2cc[nH]c12 (racemic) [Example 31-C, (±)-2-((4-(1-(5-Cyano-1H-benzo[d]imidazol-2-yl)-1-hydroxyethyl)-7-methyl-1H-indol-5-yl)oxy)acetamide] | 430
19 | Cc1cc(OCC(=O)O)c(C(C)(O)c2nc3cc(C#N)ccc3[nH]2)c2cc[nH]c12 (racemic) [Example 32-B, (±)-2-((4-(1-(5-Cyano-1H-benzo[d]imidazol-2-yl)-1-hydroxyethyl)-7-methyl-1H-indol-5-yl)oxy)acetic acid] | 1410
20 | Cc1cc(OC(C)C)c(C(N)(c2nc3cc(C#N)ccc3[nH]2)C(F)(F)F)c2cc[nH]c12 (racemic) [Example 37, (±)-2-(1-Amino-2,2,2-trifluoro-1-(5-isopropoxy-7-methyl-1H-indol-4-yl)ethyl)-1H-benzo[d]imidazole-5-carbonitrile] | 30
21 | COc1cc(C)c2[nH]ccc2c1C(c1nc2cc(C#N)ccc2[nH]1)(N(C)C)C(F)(F)F (racemic) [Example 38-C, (±)-2-(1-(Dimethylamino)-2,2,2-trifluoro-1-(5-methoxy-7-methyl-1H-indol-4-yl)ethyl)-1H-benzo[d]imidazole-5-carbonitrile] | 490
22 | Cc1cc(OC(C)C)c(C(N)c2nc3cc(C#N)ccc3[nH]2)c2cc[nH]c12 (racemic) [Example 40, (±)-2-(Amino(5-isopropoxy-7-methyl-1H-indol-4-yl)methyl)-1H-benzo[d]imidazole-5-carbonitrile] | 50
23 | COc1cc(C)c2[nH]ccc2c1C(c1nc2cc(C#N)ccc2[nH]1)N(C)C (racemic) [Example 43-C, (±)-2-((Dimethylamino)(5-methoxy-7-methyl-1H-indol-4-yl)methyl)-1H-benzo[d]imidazole-5-carbonitrile] | 1180
24 | CCOc1cc(C)c2[nH]ccc2c1C(CN)c1nc2cc(C#N)ccc2[nH]1 (racemic) [Example 44-C, (±)-2-(2-amino-1-(5-ethoxy-7-methyl-1H-indol-4-yl)ethyl)-1H-benzo[d]imidazole-5-carbonitrile] | 870
25 | CCOc1cc(C)c2[nH]ccc2c1C(CNC)c1nc2cc(C#N)ccc2[nH]1 (racemic) [Example 45, (±)-2-(1-(5-ethoxy-7-methyl-1H-indol-4-yl)-2-(methylamino)ethyl)-1H-benzo[d]imidazole-5-carbonitrile] | 1040

Source: US9056874B2, “Complement pathway modulators and uses thereof” (NOVARTIS AG, priority 2012, dated 2015)
